Literature values in patent US8092822B2, “Coatings including dexamethasone derivatives and analogs and olimus drugs” (Abbott Cardiovascular Systems Inc., priority 2008, dated 2012).

What was measured:
[1] = test system: endothelial cell proliferation
[2] = test system: human coronary artery endothelial cells; conditions: in vitro

CO[C@H]1C[C@@H]2CC[C@@H](C)[C@@](O)(O2)C(=O)C(=O)N2CCCC[C@H]2C(=O)O[C@H]([C@H](C)C[C@@H]2CC[C@H](n3cnnn3)[C@H](OC)C2)CC(=O)[C@H](C)/C=C(\C)[C@@H](O)[C@@H](OC)C(=O)[C@H](C)C[C@H](C)/C=C/C=C/C=C/1C [zotarolimus]
inhibition of endothelial cell proliferation [1]: inhibit

CC(=O)O[C@H]1C(=O)[C@@]2(C)[C@H]([C@H](OC(=O)c3ccccc3)[C@]3(O)C[C@H](OC(=O)[C@H](O)[C@@H](NC(=O)c4ccccc4)c4ccccc4)C(C)=C1C3(C)C)[C@]1(OC(C)=O)CO[C@@H]1C[C@@H]2O [paclitaxel, Paclitaxel]
inhibition of migration of human coronary artery endothelial cells [2]: inhibits | inhibition of endothelial cell proliferation [1]: inhibit

C[C@@H]1C[C@H]2[C@@H]3CCC4=CC(=O)C=C[C@]4(C)[C@@]3(F)[C@@H](O)C[C@]2(C)[C@@]1(O)C(=O)CO [dexamethasone, Dexamethasone]
effect on endothelial migration (endothelial migration): positive effect
